Patent US20040214856A1, “Cannabinoid receptor ligands and uses thereof” (Pfizer Inc, priority 2003, published 2004)

Tested on: CB-1 receptor
Test: CB-1 receptor binding assay ([3H]SR141716A displacement)
Settings: inhibition of [3H]SR141716A binding; rat or human protocol not specified
Protocol: The following assays were designed to detect compounds that inhibit the binding of [^3H] SR141716A (selective radiolabeled CB-1 ligand) and [^3H] 5-(1,1-dimethylheptyl)-2-[5-hydroxy-2-(3-hydroxypropyl)-cyclohexyl]-phenol; radiolabeled CB-1/CB-2 ligand) to their respective receptors.
PelFreeze brains (available from Pel Freeze Biologicals, Rogers, Arkansas) were cut up and placed in tissue preparation buffer (5 mM Tris HCl, pH=7.4 and 2 mM EDTA), polytroned at high speed and kept on ice for 15 minutes. The homogenate was then spun at 1,000×g for 5 minutes at 4° C. The supernatant was recovered and centrifuged at 100,000×G for 1 hour at 4° C. The pellet was then re-suspended in 25 ml of TME ([…], pH=7.4, 5 mM MgCl2, and 1 mM EDTA) per brain used. A protein assay was performed and 200 μl of tissue totaling 20 μg was added to the assay.
The test compounds were diluted in drug buffer (0.5% BSA, 10% DMSO and TME) and then 25 μl were added to a deep well polypropylene plate. [^3H] […] In the morning the filters were counted on a Wallac Betaplate™ counter (available from PerkinElmer Life Sciences™, Boston, Mass.). […]
The test compounds were diluted in drug buffer (0.5% BSA, 10% DMSO and TME) and then 25 μl were added to a deep well polypropylene plate. […] In the morning the filters were counted on a Wallac Betaplate™ counter (available from PerkinElmer Life Sciences™, Boston, Mass.).

SMILES | CB-1 binding activities [nM]
CC(C)N1Cc2nn(-c3ccccc3Cl)c(-c3ccc(Cl)cc3)c2C1=O [Example 1A-3, 2-(2-chloro-phenyl)-5-isopropyl-3-(4-chloro-phenyl)-5,6-dihydro-2H-pyrrolo[3,4-c]pyrazol-4-one] | 2
CC(C)N1Cc2nn(-c3ccccc3Cl)c(-c3ccc(C#N)cc3)c2C1=O [Example 1A-2, 2-(2-chloro-phenyl)-5-isopropyl-3-(4-cyano-phenyl)-5,6-dihydro-2H-pyrrolo[3,4-c]pyrazol-4-one] | 4
